The text below walks through data of BindingDB's records for doi:10.1016/j.bmcl.2004.03.067 (Pfizer, 2004).

Assay [1] can be described thus: Inhibition of Phosphodiesterase 5.
A short description of assay [2]: Inhibition of Phosphodiesterase 5. The source holds these as a separate data set.

For `COc1cc2c3c(n1)C(c1ccccc1)=N[C@@H](NC(=O)c1cccnc1)C(=O)N3CC2`, in assay [1], the IC50 (usually the point on the concentration scale where inhibition reaches its midpoint) is over 100 µM. In the case of `COc1cc2c3c(n1)C(c1ccccc1)=NC(NC(=O)c1cccnc1)C(=O)N3CC2` (centres undefined) [N-(4-methoxy-9-oxo-6-phenyl-1,2,8,9-tetrahydro-5,7,9a-triazabenzo[cd]azulen-8-yl)nicotinamide], the IC50 in assay [1] was over 100 µM; in assay [2], 95 µM.

The molecule `COc1cc2c3c(n1)C(c1ccccc1)=NCC(=O)N3CC2` [4-Methoxy-6-phenyl-1,2-dihydro-8H-5,7,9a-triaza-benzo[cd]azulen-9-one] gave an IC50 in assay [1] of 91 µM. In other words, the double-digit micromolar range.
